{"source": "patent EP1493438A1", "about": "“Vanilloid receptor (VR) inhibitors for treatment of Human Immunodeficiency Virus (HIV)-mediated pain states” (Bayer HealthCare AG, priority 2003, dated 2005)", "key": {"[1]": {"tested_on": "rat DRG neurons", "assay": "Inhibition of gp120-mediated CGRP-release from rat DRG neurons (Method B)", "conditions": "for inhibition of gp120-mediated CGRP release from DRG neurons: result in words; for IC50: Rattus norvegicus, DRG neuron"}, "[2]": {"tested_on": "rat sciatic nerve", "assay": "gp120-mediated CGRP release from rat sciatic nerve in the presence or absence of VR1 inhibitors (Method C)", "conditions": "for CGRP release: gp120 250 pg/ml in the presence of CAZ (1 µM) or Cpd. 1 (20 nM); for block of CGRP release from gp120-stimulated sciatic nerve: result in words", "protocol": "After 5 min, 10 min and 20 min supernatant was substituted with fresh solution or RAB buffer pH 7.4 and the samples placed on ice until analysis. All samples were analyzed by EIA for CGRP release and normalized by the dry weight of the particular sciatic nerve.\nMale Wistar rats (180-220 g) are anesthetized using Isofluran, Dinitricoxide and Oxygen (5:68:27 (v/v/v)) in a vaporisator. The hind legs are shaved and opened along the femur. Using tweezers and scissors the Musculus gluteus superficialis and Musculus bicepsfemoris are separated gaining access to the Nervus ischiadicus. The Nervus ischiadicus is cut proximally 1 cm before entry into the spine and laterally at the branching of Nervus fibularis and Nervus tibialis. […] The fixed nerve is transferred to a 1.5 ml eppendorf tube containing 300 µl RAB, pH 7.4 at RT.\nTo reset all samples, sciatic nerve preparations are transferred 5 min prior to stimulation to fresh 300 µl of RAB pH 7.4 (prestimulation ― point zero). Stimulation is performed for 5 or 10 min with Capsaicin solution (100 nM Capsaicin in RAB pH 7.4), RAB pH 4.5 or preheated RAB pH 7.4 (50°C) in the presence or absence of inhibitors. To evaluate post-stimulation CGRP-release sciatic nerve preparations are transferred in 5-min-intervals to fresh tubes containing RAB pH 7.4. Supernatants of each sample are transferred to EIA plates (CGRP Release Kit, SpiBio, Paris, France) and analyzed in triplicate (3 x 100µl) according to the manufacterer's protocol. Upon completion of the experiment the sciatic nerve preparations are carefully removed from the spatula, dried on 3MM paper and weighed. CGRP concentrations obtained from the CGRP-release EIA are finally normalized to the dry weight of the sciatic nerve preparations."}, "[3]": {"tested_on": "HIV patients", "conditions": "cited from earlier work; for efficacy in clinical trails investigating HIV-mediated neuropathic pain: Shlay et al. (1998), Kieburtz et al. (1998)"}, "[4]": {"tested_on": "rat sciatic nerve", "assay": "CGRP-release from isolated rat sciatic nerve upon stimulation (Method C)", "conditions": "Capsaicin 100 nM, t0-t5 stimulation period"}}}
{"smiles": "C[S+]([O-])c1ccc(-c2nc(-c3ccncc3)c(-c3ccc(F)cc3)[nH]2)cc1", "note": "(centres unmarked) [SB203580]", "values": [{"measurement": "inhibition of gp120-mediated CGRP release from DRG neurons", "setting": "[1]", "value": "completely inhibited"}]}
{"smiles": "N#CC(=C(/N)Sc1ccccc1N)/C(C#N)=C(\\N)Sc1ccccc1N", "note": "[Compound U0126]", "values": [{"measurement": "IC50", "setting": "[1]", "value": 1.9, "unit": "nM"}, {"measurement": "inhibition of gp120-mediated CGRP release from DRG neurons", "setting": "[1]", "value": "completely inhibited"}]}
{"smiles": "COc1cccc(-c2cc(=O)c3ccccc3o2)c1N", "note": "[PD98059]", "values": [{"measurement": "IC50", "setting": "[1]", "value": 9.36, "unit": "nM"}, {"measurement": "inhibition of gp120-mediated CGRP release from DRG neurons", "setting": "[1]", "value": "completely inhibited"}]}
{"smiles": "CC(Cc1ccc(O)c(O)c1)C(C)Cc1ccc(O)c(O)c1", "note": "(centres unmarked) [NGDA, Nordihydroguaiaretic Acid]", "values": [{"measurement": "IC50", "setting": "[1]", "value": 43000, "unit": "nM"}, {"measurement": "inhibition of gp120-mediated CGRP release from DRG neurons", "setting": "[1]", "value": "completely inhibited"}]}
{"smiles": "O=C(NCc1ccc(OC(F)(F)F)cc1)Nc1cccc2c1CC(O)CC2", "note": "(centres unmarked) [Cpd. Example 1, N-(7-hydroxy-5,6,7,8-tetrahydro-naphthalen-1-yl)-N'-(4-trifluoromethoxy-benzyl)-urea]", "values": [{"measurement": "IC50", "setting": "[1]", "value": 0.44, "unit": "nM"}, {"measurement": "inhibition of gp120-mediated CGRP release from DRG neurons", "setting": "[1]", "value": "completely inhibited"}, {"measurement": "CGRP release", "setting": "[2]; time 0 min", "value": 0}, {"measurement": "CGRP release", "setting": "[2]; time 5 min", "value": 0}, {"measurement": "CGRP release", "setting": "[2]; time 10 min", "value": 0}, {"measurement": "CGRP release", "setting": "[2]; time 20 min", "value": 0}, {"measurement": "CGRP release", "setting": "[2]; time -5 min", "value": 0}, {"measurement": "block of CGRP release from gp120-stimulated sciatic nerve", "setting": "[2]", "value": "capable to block CGRP release"}]}
{"smiles": "Cc1cccc(C)c1OCC(C)N", "note": "(centres unmarked) [Mexiletine]", "values": [{"measurement": "efficacy in clinical trails investigating HIV-mediated neuropathic pain", "setting": "[3]", "value": "completely ineffective"}]}
{"smiles": "Oc1cc2c(cc1O)CN(C(=S)NCCc1ccc(Cl)cc1)CCC2", "note": "[CAZ, Capsazepin]", "values": [{"measurement": "IC50", "setting": "[1]", "value": 109, "unit": "nM"}, {"measurement": "inhibition of gp120-mediated CGRP release from DRG neurons", "setting": "[1]", "value": "completely inhibited"}, {"measurement": "block of CGRP release from gp120-stimulated sciatic nerve", "setting": "[2]", "value": "capable to block CGRP release"}]}
{"smiles": "CC(C)Cc1ccc(C(C)C(=O)O)cc1", "note": "(centres unmarked) [Ibuprofen]", "values": [{"measurement": "inhibition of gp120-mediated CGRP release from DRG neurons", "setting": "[1]", "value": "can not inhibit"}]}
{"smiles": "COc1cc(CNC(=O)CCCC/C=C/C(C)C)ccc1O", "note": "[CAPS, Capsaicin]", "values": [{"measurement": "CGRP-release", "setting": "[4]; time 0 min", "value": "0.05923 ng/mg ng CGRP/mg nerve dry weight"}, {"measurement": "CGRP-release", "setting": "[4]; time 5 min", "value": "5.9+/-1.3 ng/mg ng CGRP/mg nerve dry weight"}, {"measurement": "CGRP-release", "setting": "[4]; time 10 min", "value": "5.3+/-0.2 ng/mg ng CGRP/mg nerve dry weight"}, {"measurement": "CGRP-release", "setting": "[4]; time 20 min", "value": "4.0+/-0.1 ng/mg ng CGRP/mg nerve dry weight"}, {"measurement": "CGRP-release", "setting": "[4]; time -5 min", "value": "0 ng CGRP/mg nerve dry weight"}, {"measurement": "pain in HIV patients with chronic DSP", "setting": "[3]; randomized, double-masked clinical trail, Paice et al. (2000)", "value": "strongly increased pain"}]}
{"smiles": "CN(C)CCC=C1c2ccccc2CCc2ccccc21", "note": "[Amitriptyline]", "values": [{"measurement": "efficacy in clinical trails investigating HIV-mediated neuropathic pain", "setting": "[3]", "value": "completely ineffective"}]}
{"smiles": "CCN(CC)CCCC(C)Nc1c2ccc(Cl)cc2nc2ccc(OC)cc12", "note": "(centres unmarked) [QN, Quinacrine]", "values": [{"measurement": "IC50", "setting": "[1]", "value": 1530, "unit": "nM"}, {"measurement": "inhibition of gp120-mediated CGRP release from DRG neurons", "setting": "[1]", "value": "completely inhibited"}]}
